Reference: US9326513B2, “Fungicidal compositions” (Syngenta Participations AG, priority 2011, dated 2016)

Key:
Format in all cases: in vivo
Settings in all cases: foliar, compared to untreated control leaf disks, read-out: disease control
[1] = tested on: Puccinia recondita f. sp. tritici; test: Puccinia recondita f. sp. tritici / wheat / leaf disc curative (brown rust)
Experimental: Puccinia recondita f. sp. tritici/Wheat/Leaf Disc Curative (Brown Rust) Wheat leaf segments cv. Kanzler are placed on agar in multiwell plates (24-well format). The leaf segments are inoculated with a spore suspension of the fungus. Plates were stored in darkness at 19° C. and 75% rh. The formulated test compound diluted in water was applied 1 day after inoculation.

Pyrenophora teres = Pyrenophora teres / barley / leaf disc preventative (net blotch)
From the text: Pyrenophora teres/Barley/Leaf Disc Preventative (Net Blotch) Barley leaf segments cv. Hasso were placed on agar in a multiwell plate (24-well format) and sprayed with the formulated test compound diluted in water. The leaf segments were inoculated with a spore suspension of the fungus 2 days after application.

[2] = tested on: Blumeria graminis f. sp. tritici (Erysiphe graminis f. sp. tritici); test: Blumeria graminis f. sp. tritici / wheat / leaf disc preventative (powdery mildew on wheat)
Method in brief: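 Wheat leaf segments (cv. Kanzler) on agar were sprayed with formulated compound in water, inoculated with powdery mildew 1 day later, and kept at 20° C, 60% rh (24 h dark, then 12 h light/12 h dark). Percent disease control versus untreated scored 6-8 days after application; tested at 200 ppm.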

[3] = tested on: Puccinia recondita f. sp. tritici; test: Puccinia recondita f. sp. tritici / wheat / leaf disc preventative (brown rust)
From the text: Puccinia recondita f. sp. tritici/Wheat/Leaf Disc Preventative (Brown Rust) Wheat leaf segments cv. Kanzler were placed on agar in multiwell plates (24-well format) and sprayed with the formulated test compound diluted in water. The leaf disks were inoculated with a spore suspension of the fungus 1 day after application.

Measured: pest or weed control at 200 ppm

CCN(C)/C=N/c1cc(Br)c(OC/C=C\c2cccc(OC)c2)nc1C [Q.023]
≥ 50%: all assays above

CCN(C)/C=N/c1cc(Br)c(OC2CCOCC2)nc1C [Q.244]
≥ 50%: all assays above

CCN(C)/C=N/c1cc(Br)c(OCCCC(O)CCl)nc1C (stereo not shown) [Q.059]
≥ 50%: all assays above

CCN(C)/C=N/c1cc(Br)c(OC2Cc3cc(OC)c(OC)cc3C2)nc1C [Q.066]
≥ 50%: all assays above

CCN(C)/C=N/c1cc(Br)c(OC(C)Cc2cc(C)cc(C)c2)nc1C (stereo not shown) [Q.219]
≥ 50%: all assays above

CCN(C)/C=N/c1cc(Br)c(OCc2ccc(Cc3ccccc3)cc2)nc1C [Q.121]
≥ 50%: all assays above

CCN(C)/C=N/c1cc(Br)c(OC2CCc3ccc(C(C)=O)cc3C2)nc1C (stereo not shown) [Q.033]
≥ 50%: all assays above

CCN(C)/C=N/c1cc(Br)c(OCCC2CC2)nc1C [Q.222]
≥ 50%: all assays above

CCc1nc(OCc2ccccc2C)c(Br)cc1/N=C/N(C)CC [Q.398]
≥ 50%: all assays above

CCN(C)/C=N/c1cc(Br)c(OC2CCC(=C(Cl)Cl)CC2)nc1C (stereo not shown) [Q.071]
≥ 50%: all assays above

CCN(C)/C=N/c1cc(Br)c(OC2CCC(OC(=O)C(C)C)CC2)nc1C (stereo not shown) [Q.211]
≥ 50%: all assays above

CCN(C)/C=N/c1cc(Br)c(OC2CCC(=C(C)C)CC2)nc1C (stereo not shown) [Q.122]
≥ 50%: all assays above

CCN(C)/C=N/c1cc(Br)c(OC(C)CCCc2ccccc2)nc1C (stereo not shown) [Q.201]
≥ 50%: all assays above
